A short description of data set [1]: Kinematic viscosity of aqueous solutions of non-aqueous solvents (25° C.). Type of data set: physicochemical. The source says:
The “kinematic viscosity” herein is a value obtained by dividing viscosity of a liquid by its density and means a value measured using an Ubbelohde viscometer in accordance with Japanese Pharmacopoeia viscosity measuring method. In the invention, according to Japanese Pharmacopoeia, centistokes in CGS system is used as a unit.
These water-soluble acid amides may be used singly or as a mixture of two or more of them. Furthermore, within a range imparting no serious influence on viscosity, in addition to these, water-soluble non-aqueous solvents shown in JP-A-11-193233, for example, those described in the following Table 1 may be used as auxiliary solubilizing means.

For data set [2] the following is noted: as described in JP-B-63-65047; cited from earlier work.

Bounds are passed on as bounds.

In the case of `CCO` [Ethanol], the “Kinematic viscosity of aqueous solution” value in data set [1] (concentration 5% (W/V)) turned out to be 1.082 Centistokes; in data set [1] (concentration 10% (W/V)), 1.300 Centistokes; in data set [1] (concentration 15% (W/V)), 1.577 Centistokes; in data set [1] (concentration 20% (W/V)), 1.857 Centistokes; in data set [1] (concentration 37% (W/V)), 2.479 Centistokes.

`NC(N)=Nc1nc(CSCCC(N)=NS(N)(=O)=O)cs1` [Famotidine]: the water-solubility in data set [2] is given as no more than 0.1 w/v %.

Take `CC(O)CO` (centres unmarked) [Propylene glycol]: the “Kinematic viscosity of aqueous solution” value in data set [1] (concentration 5% (W/V)) is 1.067 Centistokes; in data set [1] (concentration 10% (W/V)) it was 1.247 Centistokes; in data set [1] (concentration 15% (W/V)), 1.455 Centistokes; in data set [1] (concentration 20% (W/V)), 1.729 Centistokes; in data set [1] (concentration 37% (W/V)) it was 3.048 Centistokes.

Values taken from patent US7094414B2, “Famotidine injections” (Astellas Pharma Inc., priority 2000, dated 2006).
